In the METLIN SMRT retention time set (Domingo-Almenara et al. 2019):

Experiment: gradient 5% acetonitrile 3 min, to 50% in 2 min, to 85% in 15 min, held 3 min, 100 µL/min
Settings: column: Zorbax Extend-C18 2.1 x 50 mm; eluents: water / acetonitrile, 0.1% formic acid
Summary of the method: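 Retention times of pure standards were taken from adduct peaks that were selected by computer and manually inspected. Over 3 months, mixtures of ~100 molecules were run by HPLC–quadrupole time-of-flight mass spectrometry in positive and negative ionization mode. The Zorbax Extend-C18 column (2.1 × 50 mm, 1.8 μm) ran at 100 μL/min in water and acetonitrile, each containing 0.1% formic acid, with 40 μL dead volume and 900 μL dwell volume.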

SMILES	RP-LC retention time [s]
CCOc1cccc(CNC(=O)c2c(C)sc3ccn(CC)c(=O)c23)c1	856
CCC(=O)N(CCOC)CC(=O)N1CCc2sccc2C1COc1ccc(Cl)cc1 (configuration not stated)	907
COc1ccc(-c2nn3c(-c4ccc5ccccc5n4)nnc3s2)cc1	975
COC(=O)Cc1c(C(=O)OC)nnn1-c1ccc(OC)cc1	862
Cc1cc(-c2nnc(C3CC3)o2)c(C)n1CC(=O)NCc1ccc(Cl)cc1	850
CS(=O)(=O)N1CCC(OC2CCN(C(=O)c3ccccc3)CC2)CC1	709
CCCN1CCN(C(=O)c2ccc(-c3ccc(N4CCSCC4)nc3)cc2)CC1	560
COc1cc(OC)cc(-c2nnc(Cc3nc(-c4ccccc4F)no3)o2)c1	907
CCn1c(=O)c(N2CCC(C(=O)NCCc3c[nH]c4ccc(Cl)cc34)CC2)nc2cccnc21	993
Cc1nnc2c(NC(=O)c3ccccn3)cccn12	659
CC(C)N1CCCC(Cn2cc(COc3ccc4c(c3)CCC4)nn2)C1 (configuration not stated)	667
COc1cc(NS(=O)(=O)c2ccc(-c3nnc(C4CCC4)o3)o2)cc(OC)c1	886
CC(C)(C)c1cc(C(C)(C)C)c2c(c1)C(O)(C(F)(F)F)C(=O)O2 (configuration not stated)	1250
Cc1ccc(-c2noc(C3CCCN3S(=O)(=O)c3ccc4c(c3)CCCC4)n2)cc1 (configuration not stated)	1350
CCCC[C@@]1(C2CCCC2)Cc2cc(OCC(=O)O)c(Cl)c(Cl)c2C1=O	1320
CCn1nc(CNC(=O)C2CCCCC2)c2ccccc21	828
Cc1nnsc1C(=O)Nc1nnc(Cc2ccc3c(c2)OCO3)o1	740
Cc1noc(-c2cccc(OC3CN(S(=O)(=O)c4c(C)nn(C)c4C)C3)c2)n1	850
Cc1sc(-c2nc(C(C)C)cs2)cc1S(=O)(=O)N1CCCCC1	1310
CCOC(=O)c1ccccc1NC(=O)C1CCCN(c2ncnc3c2nc2n3CCCCC2)C1 (configuration not stated)	876
CCN1C(=O)COc2ccc(-c3noc(-c4cnccn4)n3)cc21	802
O=C(Cn1ncc2c(c1=O)N(C1CC1)C(=O)CS2)NCCc1ccc(Cl)cc1	755
O=S(=O)(c1ccc2c(c1)CCC2)N1CCc2nc(-c3ccccc3)ncc2C1	1190

SMILES	RP-LC retention time [s]
COc1ccc(-c2cnn3c(C)cc(C)nc23)cc1S(=O)(=O)N1CCN(C2CCCCC2)CC1	690
Cc1ccc(-c2c(C(=O)NCC3CCCO3)nc3ccccn23)cc1 (configuration not stated)	730
CCC(C)NC(=O)C1CCN(c2cnc(N3CCOCC3)nc2)CC1 (configuration not stated)	638
Cc1ccc(C(=O)N2CCCC2c2nc(-c3ccc(F)cc3F)no2)s1 (configuration not stated)	1010
Cc1ccccc1N1CCN(Cc2nc(-c3ccc(N4CCSCC4)nc3)no2)CC1	801
CCOc1ccc(-n2nc(CO)c(C(=O)NC3CC3)n2)cc1	814
O=C(NCc1cccs1)NCC1CN(c2cccc(Cl)c2)C(=O)O1 (configuration not stated)	731
CCOc1ccccc1CNC1CCN(c2ccc(C(=O)NC3CC3)cn2)C1 (configuration not stated)	579
COc1ccc(Cl)cc1NC(=O)c1cn(C)c2ncccc12	955
CN1CCN(c2ccc([N+](=O)[O-])c3no[n+]([O-])c23)CC1	631
Cc1nnc(C2CCCCCN2S(=O)(=O)c2cccnc2)o1 (configuration not stated)	691
COc1ccc(C2CCCN2C(=O)c2c(Br)cnn2C)cc1 (configuration not stated)	841
O=C(NCc1ccc(Cl)cc1)c1cc2sccc2n1Cc1ccc(F)cc1	1170
CC(C)C(=O)N1CCc2[nH]nc(C(=O)NCCCc3ccccc3)c2C1	756
CCN(CC)c1nc2ccsc2c(=O)n1CC(=O)NCc1ccc(Cl)cc1	908
CC(C)Cc1cc(-c2nn3c(-c4ccc(Cl)cc4)nnc3s2)n[nH]1	1100
CN(CCCNC(=O)Cn1c(=O)c2cccn2c2ccc(F)cc21)C1CCCCC1	635
CCS(=O)(=O)c1nc2ccc(NS(=O)(=O)c3ccc4c(c3)oc(=O)n4C)cc2s1	805
O=C(COc1ccc(Cl)cc1)Nc1nc(-c2ccc(S(=O)(=O)N3CCOCC3)cc2)cs1	1040
Cc1cc(C)cc(NC(=O)Cn2cccc2-c2nnc(C3CCC3)o2)c1	920
Cc1nc(C(=O)Nc2ccc(F)cc2Cl)c(C)o1	1040
CC1CCC2(CC1)NC(=O)N(CC(=O)NCc1ccccc1Cl)C2=O (configuration not stated)	790

Next, values leading:

RP-LC retention time [s]	SMILES
952	COc1cc(C(C[N+](=O)[O-])c2c(-c3ccccc3)[nH]c3ccccc23)cc(OC)c1OC (configuration not stated)
778	CC1(C(=O)NCc2ccccc2)CN(S(C)(=O)=O)CC(=O)N1Cc1ccccc1Cl (configuration not stated)
811	Cc1ccccc1N1CCN(C(=O)c2ccc(CN3CCN(C(C)C)C(=O)C3=O)cc2)CC1
791	CCn1nc(CNC(=O)Cc2ccccc2F)c2ccccc21
924	Cc1ccccc1NS(=O)(=O)c1ccc(-c2c(C)noc2C)cc1
678	CCOC(=O)c1cccc(NC(=O)Cn2cnc3nc(N4CCCC(C(=O)NC)C4)sc3c2=O)c1 (configuration not stated)
692	COCCCNC(=O)Cn1c(=O)n(-c2ccc(C)cc2)c2ncccc21
820	Cc1cc(C)cc(NC(=O)Cn2ccc3sccc3c2=O)c1
917	CCCNC(=O)N(Cc1c(C)nn(-c2ccccc2)c1Oc1ccccc1OC)CC1CCCO1 (configuration not stated)
658	COC(=O)Nc1nc2ccc(S(=O)c3ccccc3)cc2[nH]1 (configuration not stated)
627	CCC(C(=O)N1CCN(C)CC1)n1c2ccccc2c2cnn(C)c(=O)c21 (configuration not stated)
650	CCc1cccc(NC(=O)Cn2c(N)nc(COC)cc2=O)c1
594	COc1cccc(CNC(=O)c2cc(NC(C)=O)cc3nc(C)ccc23)c1OC
861	CSc1cccc(NC(=O)Cn2c(=O)n(-c3ccccc3)c(=O)c3c2cc(C)n3C)c1
600	CC(C)(C)C(=O)NCc1cccnc1-c1ccccc1
718	CCCC(NC(=O)CCc1ccccc1)C(=O)Nc1nc2ccccc2[nH]1 (configuration not stated)
997	Cc1cc(C)n(Cc2nc(-c3ccc(NC(=O)Cc4ccc(Cl)cc4)cc3)oc2C)n1
878	CN(Cc1ccccc1)C(=O)c1ccc2c(c1)N(Cc1ccccc1)C(=O)CO2
569	CC(=O)Nc1c(C)nn(-c2ccccc2)c1N1CCC(C(=O)N2CCN(c3ccccn3)CC2)CC1
754	CCn1ccc2c(cc(C(=O)Nc3cc(F)ccc3F)n2C)c1=O
588	CN(C)C(CNC(=O)C1(c2ccccc2)CCOCC1)c1cn(C)c2ccccc12 (configuration not stated)
953	Cn1c(=O)sc2cc(S(=O)(=O)N3CCC(C(=O)Nc4cccc(Cl)c4)CC3)ccc21
